Source: patent publication US9993497B2, “Use of alginate compositions in preventing or reducing liver damage caused by a hepatotoxic agent” (HADASIT MEDICAL RESEARCH SERVICES AND DEVELOPMENT LTD., priority 2012, dated 2018)

Columns and labels:
[1] = test system: paracetamol intoxicated mice; experiment: Nitrotyrosine staining of liver tissue (oxidative stress); type: in vivo, mice (C57BL/6); details: 4 mg paracetamol alone
Method: (§1) Briefly, necrosis staining was as follows: sections were first de-paraffinized and then were incubated with rabbit polyclonal IgG. Sections were then incubated with secondary antibody using the MACH 3 Rabbit HRP Polymer Detection and then dehydrated, cleared and mounted in synthetic resin. For color detection, DAB (3,3′-diaminobenzidine) was applied, followed by counterstaining Quantification of necrosis was carried out by the Ariol SL-50 system (Applied Imaging) on microscope slides. Nitrotyrosine and Ki-67 immunostaining staining was performed similarly, using a rabbit polyclonal anti-nitrotyrosine antibody (Abcam) or an anti-Ki-67 antibody (DAKO).

[2] = test system: paracetamol intoxicated mice; experiment: Ki-67 staining of liver tissue (cell proliferation); type: in vivo, mice (C57BL/6); details: 4 mg paracetamol alone
Method: as §1

CC(=O)Nc1ccc(O)cc1 [paracetamol, N-acetyl-p-aminophenol]
Nitrotyrosine staining in liver [1]: extensive centrilobular nitrotyrosine staining | Cell proliferation in the liver (Ki-67 staining) [2]: widespread cell proliferation in the liver
